Results reported in ChEMBL document CHEMBL2321853, “Novel acylethanolamide derivatives that modulate body weight through enhancement of hypothalamic pro-opiomelanocortin (POMC) and/or decreased neuropeptide Y (NPY)” (J Med Chem, 2013).
Calls of active or inactive are those of the source. The calls are words filed in the database; no cut-off is given here.

Tests used:
[1] = biological target: Transient receptor potential cation channel subfamily V member 1 (Mus musculus) (UniProt Q704Y3); assay: Displacement of [3H]resiniferatoxin from TRPV1 in mouse cortical slices
Mus musculus [2] = assay: Antiobesity activity in Sabra mouse assessed as reduction in body weight at 1 mg/kg, ip administered on day 0, 10, 11, 12, 24, 29 measured on day 29 relative to control; type: functional; set-up: scale not given: the % may be the effect or the level left; conditions: route intraperitoneal
Mus musculus [3] = assay: Antiobesity activity in Sabra mouse assessed as reduction in body weight at 1 mg/kg, ip administered on day 0, 10, 11, 12, 24, 29 measured on day 22 relative to control; type: functional; set-up: scale not given: the % may be the effect or the level left; conditions: route intraperitoneal
Mus musculus [4] = assay: Antiobesity activity in Sabra mouse assessed as reduction in body weight at 1 mg/kg, ip administered on day 0, 10, 11, 12, 24, 29 measured on day 39 relative to control; type: functional; set-up: scale not given: the % may be the effect or the level left; conditions: route intraperitoneal
[5] = biological target: T1, Glucose-dependent insulinotropic receptor (Homo sapiens, UniProt Q8TDV5); assay: Agonist activity at recombinant GPR119 receptor (unknown origin)
T1 sequence (Q8TDV5 whole entry): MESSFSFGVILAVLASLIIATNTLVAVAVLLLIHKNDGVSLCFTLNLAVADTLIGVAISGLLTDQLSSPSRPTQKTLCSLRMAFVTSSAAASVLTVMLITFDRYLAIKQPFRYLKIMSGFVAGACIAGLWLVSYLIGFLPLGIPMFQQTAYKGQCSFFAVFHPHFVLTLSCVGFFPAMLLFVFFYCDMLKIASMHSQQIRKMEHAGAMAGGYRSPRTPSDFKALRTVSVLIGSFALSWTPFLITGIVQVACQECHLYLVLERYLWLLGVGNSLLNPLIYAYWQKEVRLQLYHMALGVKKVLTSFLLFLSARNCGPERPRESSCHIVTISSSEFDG

Mus musculus [6] = assay: Antiobesity activity in Sabra mouse assessed as reduction in body weight at 1 mg/kg, ip administered on day 0, 10, 11, 12, 24, 29 measured on day 33 relative to control; type: functional; set-up: scale not given: the % may be the effect or the level left; conditions: route intraperitoneal
Mus musculus [7] = assay: Antiobesity activity in Sabra mouse assessed as reduction in body weight at 1 mg/kg, ip administered on day 0, 10, 11, 12, 24, 29 measured on day 36 relative to control; type: functional; set-up: scale not given: the % may be the effect or the level left; conditions: route intraperitoneal
Mus musculus [8] = assay: Antiobesity activity in Sabra mouse assessed as reduction in body weight at 1 mg/kg, ip administered on day 0, 10, 11, 12, 24, 29 measured on day 19 relative to control; type: functional; set-up: scale not given: the % may be the effect or the level left; conditions: route intraperitoneal
Mus musculus [9] = assay: Antiobesity activity in Sabra mouse assessed as reduction in body weight at 1 mg/kg, ip administered on day 0, 10, 11, 12, 24, 29 measured on day 26 relative to control; type: functional; set-up: scale not given: the % may be the effect or the level left; conditions: route intraperitoneal
Mus musculus [10] = assay: Antiobesity activity in Sabra mouse assessed as reduction in body weight at 1 mg/kg, ip administered on day 0, 10, 11, 12, 24, 29 measured on day 24 relative to control; type: functional; set-up: scale not given: the % may be the effect or the level left; conditions: route intraperitoneal
[11] = biological target: Transient receptor potential cation channel subfamily V member 1 (Homo sapiens, UniProt Q8NER1); assay: Agonist activity at TRPV1 receptor (unknown origin)
Mus musculus [12] = assay: Antiobesity activity in Sabra mouse assessed as reduction in body weight at 1 mg/kg, ip administered on day 0, 10, 11, 12, 24, 29 measured on day 12 relative to control; type: functional; set-up: scale not given: the % may be the effect or the level left; conditions: route intraperitoneal

Sequence of Transient receptor potential cation channel subfamily V member 1 (Q8NER1 whole entry): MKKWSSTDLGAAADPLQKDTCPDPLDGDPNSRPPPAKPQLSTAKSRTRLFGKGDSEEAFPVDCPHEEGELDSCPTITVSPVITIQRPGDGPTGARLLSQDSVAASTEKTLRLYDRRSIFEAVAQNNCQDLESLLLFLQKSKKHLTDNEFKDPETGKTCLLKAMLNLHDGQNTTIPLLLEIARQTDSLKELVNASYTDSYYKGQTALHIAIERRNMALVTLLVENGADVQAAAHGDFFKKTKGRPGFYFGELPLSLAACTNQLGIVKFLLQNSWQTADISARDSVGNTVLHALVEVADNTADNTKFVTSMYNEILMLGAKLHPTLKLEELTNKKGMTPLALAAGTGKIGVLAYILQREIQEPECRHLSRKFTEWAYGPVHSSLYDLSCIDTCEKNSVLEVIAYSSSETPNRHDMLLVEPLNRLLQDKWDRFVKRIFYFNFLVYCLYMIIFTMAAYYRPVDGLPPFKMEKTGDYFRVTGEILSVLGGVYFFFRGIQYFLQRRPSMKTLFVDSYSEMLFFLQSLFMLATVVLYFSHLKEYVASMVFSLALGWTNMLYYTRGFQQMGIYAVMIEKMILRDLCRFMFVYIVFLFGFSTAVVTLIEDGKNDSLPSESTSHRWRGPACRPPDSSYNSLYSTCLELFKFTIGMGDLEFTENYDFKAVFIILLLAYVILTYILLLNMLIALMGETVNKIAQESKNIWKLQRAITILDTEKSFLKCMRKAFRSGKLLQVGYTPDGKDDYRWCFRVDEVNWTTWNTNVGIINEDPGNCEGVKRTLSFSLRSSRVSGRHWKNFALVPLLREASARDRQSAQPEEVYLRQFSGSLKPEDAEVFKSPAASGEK
Sequence of Transient receptor potential cation channel subfamily V member 1 (Mus musculus) (Q704Y3 whole entry): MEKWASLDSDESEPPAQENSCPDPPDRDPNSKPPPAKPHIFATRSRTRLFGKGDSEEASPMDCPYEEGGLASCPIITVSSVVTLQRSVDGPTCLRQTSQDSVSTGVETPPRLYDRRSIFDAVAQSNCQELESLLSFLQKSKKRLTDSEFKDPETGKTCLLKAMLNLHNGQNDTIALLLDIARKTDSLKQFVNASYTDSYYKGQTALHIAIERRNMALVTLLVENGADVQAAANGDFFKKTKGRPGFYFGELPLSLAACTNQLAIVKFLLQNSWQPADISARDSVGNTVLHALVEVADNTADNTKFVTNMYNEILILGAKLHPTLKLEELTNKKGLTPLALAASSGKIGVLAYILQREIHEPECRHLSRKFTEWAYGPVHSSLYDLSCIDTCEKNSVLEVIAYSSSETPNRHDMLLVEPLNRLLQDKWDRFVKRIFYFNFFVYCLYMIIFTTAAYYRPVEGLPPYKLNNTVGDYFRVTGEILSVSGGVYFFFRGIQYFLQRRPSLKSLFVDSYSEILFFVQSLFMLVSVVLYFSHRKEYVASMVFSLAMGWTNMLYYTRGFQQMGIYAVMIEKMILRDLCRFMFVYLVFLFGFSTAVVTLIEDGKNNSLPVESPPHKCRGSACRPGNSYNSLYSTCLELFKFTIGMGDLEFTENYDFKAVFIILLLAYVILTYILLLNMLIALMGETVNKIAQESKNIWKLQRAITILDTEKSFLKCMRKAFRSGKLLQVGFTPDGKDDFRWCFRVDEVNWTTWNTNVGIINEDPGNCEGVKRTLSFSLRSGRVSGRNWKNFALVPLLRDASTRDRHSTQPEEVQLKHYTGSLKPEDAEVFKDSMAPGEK

SMILES | Activity [1] | Activity (Mus musculus [2]) [%] | Activity (Mus musculus [3]) [%] | Activity (Mus musculus [4]) [%] | EC50 [5] [nM] | Activity (Mus musculus [6]) [%] | Activity (Mus musculus [7]) [%] | Activity (Mus musculus [8]) [%] | Activity (Mus musculus [9]) [%] | Activity (Mus musculus [10]) [%] | EC50 [11] [nM] | Activity (Mus musculus [12]) [%]
CCCCCCCCCCCCCCCCCC(=O)NCCO | inactive | – | – | – | – | – | – | – | – | – | – | –
CCCCCCCC/C=C\CCCCCCCC(=O)NCCO [OLEOYLETHANOLAMIDE] | – | -0.2 | -1.17 | -3.42 | 3200 | -0.15 | -2.57 | -1.17 | 1.43 | -0.18 | 40 | -0.23
CCCCC/C=C\C/C=C\C/C=C\C/C=C\CCCC(=O)NCCO [ANANDAMIDE] | – | – | – | – | – | – | – | – | – | – | 15.8 | –
CCCCCCCC/C=C\CCCCCCCC(=O)N[C@@H](C)CO | – | -3.66 | -2.24 | -3.58 | – | -1.63 | -2.56 | -2.24 | -0.5 | -1.57 | – | -1.8
